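Cells were grown in 96-well plates and exposed to each compound for 48 hours at five concentrations; endpoints were interpolated linearly between bracketing concentrations, or set to the highest concentration if not reached. The concentration for 50% growth inhibition is given as GI50.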 Active and inactive are the calls of the source. Cut-off read from the data, not from the text of the source: active = GI50 up to about 1.1 µM and inactive = higher.
What was measured:
Experiment in all cases: NCI tumour cell line growth inhibition, 48 h
SF-539 = system: SF-539
UACC-257 = system: UACC-257
SNB-75 = system: SNB-75
SW-620 = system: SW-620
NCI-H23 = system: NCI-H23
HT-29 = system: HT-29
UACC-62 = system: UACC-62
HL-60 = system: HL-60
TK-10 = system: TK-10
786-0 = system: 786-0
SK-OV-3 = system: SK-OV-3
SK-MEL-28 = system: SK-MEL-28
SN12C = system: SN12C
KM12 = system: KM12
ACHN = system: ACHN
BT-549 = system: BT-549
MDA-MB-231 = system: MDA-MB-231
DU-145 = system: DU-145
Hs-578T = system: Hs-578T

SMILES: O=C(Nc1c(O)[nH]c(=S)[nH]c1=O)c1ccco1
- GI50 (SF-539): > 100 µM (inactive)
- GI50 (UACC-257): > 100 µM (inactive)
- GI50 (SNB-75): > 100 µM (inactive)
- GI50 (SW-620): > 100 µM (inactive)
- GI50 (NCI-H23): > 100 µM (inactive)
- GI50 (HT-29): > 100 µM (inactive)
- GI50 (UACC-62): > 100 µM (inactive)
- GI50 (HL-60): > 100 µM (inactive)
- GI50 (TK-10): > 100 µM (inactive)
- GI50 (786-0): > 100 µM (inactive)
- GI50 (SK-OV-3): > 100 µM (inactive)
- GI50 (SK-MEL-28): > 100 µM (inactive)
- GI50 (SN12C): > 100 µM (inactive)
- GI50 (KM12): > 100 µM (inactive)
- GI50 (ACHN): > 100 µM (inactive)

SMILES: CC1(C)OC2COC3([C@@H]4OC(C)(C)O[C@@H]4CO)OC(C)(C)OC3C2O1 (stereo not given in full)
- GI50 (SF-539): > 100 µM (inactive)
- GI50 (UACC-257): > 100 µM (inactive)
- GI50 (SNB-75): > 100 µM (inactive)
- GI50 (SW-620): > 100 µM (inactive)
- GI50 (NCI-H23): > 100 µM (inactive)
- GI50 (BT-549): > 100 µM (inactive)
- GI50 (UACC-62): > 100 µM (inactive)
- GI50 (MDA-MB-231): > 100 µM (inactive)
- GI50 (DU-145): > 100 µM (inactive)
- GI50 (786-0): > 100 µM (inactive)
- GI50 (SK-MEL-28): > 100 µM (inactive)
- GI50 (SN12C): > 100 µM (inactive)
- GI50 (KM12): > 100 µM (inactive)
- GI50 (ACHN): > 100 µM (inactive)

SMILES: Oc1c(OCc2nnc(CCCCCCCCc3nnc(COc4ccc5ccccc5c4O)o3)o2)ccc2ccccc12
- GI50 (UACC-257): > 100 µM (inactive)
- GI50 (SNB-75): 62.7 µM (inactive)
- GI50 (SW-620): > 100 µM (inactive)
- GI50 (NCI-H23): 61.2 µM (inactive)
- GI50 (HT-29): > 100 µM (inactive)
- GI50 (BT-549): > 100 µM (inactive)
- GI50 (UACC-62): > 100 µM (inactive)
- GI50 (MDA-MB-231): 91.8 µM (inactive)
- GI50 (TK-10): > 100 µM (inactive)
- GI50 (DU-145): > 100 µM (inactive)
- GI50 (786-0): 16.6 µM (inactive)
- GI50 (SK-OV-3): 44.5 µM (inactive)
- GI50 (SK-MEL-28): > 100 µM (inactive)
- GI50 (SN12C): 83.9 µM (inactive)
- GI50 (KM12): > 100 µM (inactive)
- GI50 (ACHN): > 100 µM (inactive)

SMILES: Nc1ccn(C2OC(CO)C(O)C2(F)F)c(=O)n1 (stereo not given)
- GI50 (SF-539): 0.109 µM (active)
- GI50 (UACC-257): 0.312 µM (active)
- GI50 (SW-620): 0.759 µM (active)
- GI50 (NCI-H23): 0.0391 µM (active)
- GI50 (HT-29): 0.492 µM (active)
- GI50 (BT-549): 0.33 µM (active)
- GI50 (UACC-62): 0.127 µM (active)
- GI50 (MDA-MB-231): 0.828 µM (active)
- GI50 (HL-60): 0.0249 µM (active)
- GI50 (DU-145): 0.179 µM (active)
- GI50 (786-0): 0.055 µM (active)
- GI50 (SK-OV-3): 0.667 µM (active)
- GI50 (SN12C): 0.261 µM (active)
- GI50 (KM12): 39.4 µM (inactive)

SMILES: COC(=O)c1c2c(cc3c1CC1(C3)Cc3cc4c(c(C(=O)OC)c3C1)CCCC4)CCCC2
- GI50 (SF-539): > 100 µM (inactive)
- GI50 (UACC-257): > 100 µM (inactive)
- GI50 (NCI-H23): > 100 µM (inactive)
- GI50 (HT-29): > 100 µM (inactive)
- GI50 (UACC-62): > 100 µM (inactive)
- GI50 (MDA-MB-231): > 100 µM (inactive)
- GI50 (HL-60): 24.2 µM (inactive)
- GI50 (TK-10): > 100 µM (inactive)
- GI50 (786-0): > 100 µM (inactive)
- GI50 (Hs-578T): > 100 µM (inactive)
- GI50 (SK-OV-3): > 100 µM (inactive)
- GI50 (SN12C): > 100 µM (inactive)
- GI50 (KM12): > 100 µM (inactive)
- GI50 (ACHN): > 100 µM (inactive)

SMILES: O/N=C1/CCCCC1NO (stereo not given)
- GI50 (SF-539): > 100 µM (inactive)
- GI50 (UACC-257): > 100 µM (inactive)
- GI50 (SNB-75): > 100 µM (inactive)
- GI50 (SW-620): > 100 µM (inactive)
- GI50 (NCI-H23): > 100 µM (inactive)
- GI50 (HT-29): > 100 µM (inactive)
- GI50 (UACC-62): > 100 µM (inactive)
- GI50 (MDA-MB-231): > 100 µM (inactive)
- GI50 (HL-60): > 100 µM (inactive)
- GI50 (TK-10): > 100 µM (inactive)
- GI50 (DU-145): > 100 µM (inactive)
- GI50 (786-0): > 100 µM (inactive)
- GI50 (Hs-578T): > 100 µM (inactive)
- GI50 (SK-OV-3): > 100 µM (inactive)
- GI50 (SK-MEL-28): > 100 µM (inactive)
- GI50 (SN12C): > 100 µM (inactive)
- GI50 (KM12): > 100 µM (inactive)
- GI50 (ACHN): > 100 µM (inactive)

SMILES: NC1NCCC(=O)N1CCc1c[nH]c2ccccc12 (stereo not given)
- GI50 (SF-539): 16.7 µM (inactive)
- GI50 (UACC-257): 17.8 µM (inactive)
- GI50 (SNB-75): 6.98 µM (inactive)
- GI50 (SW-620): 21.3 µM (inactive)
- GI50 (NCI-H23): 18.7 µM (inactive)
- GI50 (HT-29): 27.2 µM (inactive)
- GI50 (UACC-62): 20.1 µM (inactive)
- GI50 (MDA-MB-231): 13.2 µM (inactive)
- GI50 (HL-60): 24.8 µM (inactive)
- GI50 (TK-10): 25.9 µM (inactive)
- GI50 (DU-145): 23.7 µM (inactive)
- GI50 (786-0): 20 µM (inactive)
- GI50 (Hs-578T): 23.4 µM (inactive)
- GI50 (SK-OV-3): > 100 µM (inactive)
- GI50 (SK-MEL-28): 19.3 µM (inactive)
- GI50 (SN12C): 27.2 µM (inactive)
- GI50 (KM12): 15.5 µM (inactive)
- GI50 (ACHN): 24.6 µM (inactive)

SMILES: O=S(=O)(O)c1cc(O)c2c(/N=C\c3ccccc3O)cc(S(=O)(=O)O)cc2c1
- GI50 (SF-539): > 100 µM (inactive)
- GI50 (UACC-257): > 100 µM (inactive)
- GI50 (SNB-75): 93.5 µM (inactive)
- GI50 (SW-620): > 100 µM (inactive)
- GI50 (NCI-H23): > 100 µM (inactive)
- GI50 (HT-29): > 100 µM (inactive)
- GI50 (BT-549): > 100 µM (inactive)
- GI50 (UACC-62): > 100 µM (inactive)
- GI50 (MDA-MB-231): > 100 µM (inactive)
- GI50 (HL-60): 57.9 µM (inactive)
- GI50 (TK-10): > 100 µM (inactive)
- GI50 (DU-145): > 100 µM (inactive)
- GI50 (786-0): > 100 µM (inactive)
- GI50 (SK-OV-3): > 100 µM (inactive)
- GI50 (SK-MEL-28): > 100 µM (inactive)
- GI50 (SN12C): > 100 µM (inactive)
- GI50 (KM12): > 100 µM (inactive)
- GI50 (ACHN): > 100 µM (inactive)

SMILES: Cc1nc2c(cc1C(=O)NN)c(=O)n(C)c(=O)n2C
- GI50 (UACC-257): > 100 µM (inactive)
- GI50 (SNB-75): > 100 µM (inactive)
- GI50 (SW-620): > 100 µM (inactive)
- GI50 (NCI-H23): > 100 µM (inactive)
- GI50 (HT-29): > 100 µM (inactive)
- GI50 (BT-549): > 100 µM (inactive)
- GI50 (UACC-62): > 100 µM (inactive)
- GI50 (MDA-MB-231): > 100 µM (inactive)
- GI50 (TK-10): > 100 µM (inactive)
- GI50 (DU-145): > 100 µM (inactive)
- GI50 (786-0): > 100 µM (inactive)
- GI50 (SK-OV-3): > 100 µM (inactive)
- GI50 (SK-MEL-28): > 100 µM (inactive)
- GI50 (SN12C): > 100 µM (inactive)
- GI50 (KM12): > 100 µM (inactive)
- GI50 (ACHN): > 100 µM (inactive)

SMILES: c1cc2c(cc1NC1=NCCO1)OCO2
- GI50 (SF-539): > 100 µM (inactive)
- GI50 (SNB-75): 45.9 µM (inactive)
- GI50 (SW-620): > 100 µM (inactive)
- GI50 (NCI-H23): > 100 µM (inactive)
- GI50 (HT-29): > 100 µM (inactive)
- GI50 (UACC-62): > 100 µM (inactive)
- GI50 (MDA-MB-231): > 100 µM (inactive)
- GI50 (HL-60): 41.2 µM (inactive)
- GI50 (TK-10): > 100 µM (inactive)
- GI50 (DU-145): > 100 µM (inactive)
- GI50 (786-0): > 100 µM (inactive)
- GI50 (Hs-578T): > 100 µM (inactive)
- GI50 (SK-OV-3): > 100 µM (inactive)
- GI50 (SK-MEL-28): > 100 µM (inactive)
- GI50 (SN12C): > 100 µM (inactive)
- GI50 (KM12): > 100 µM (inactive)
- GI50 (ACHN): > 100 µM (inactive)

SMILES: O=C1N(c2ccccc2)N=C2c3ccncc3C3=NN(c4ccccc4)C(=O)C123 (stereo not given)
- GI50 (SF-539): 14.5 µM (inactive)
- GI50 (UACC-257): 27.1 µM (inactive)
- GI50 (SNB-75): > 100 µM (inactive)
- GI50 (SW-620): 2.53 µM (inactive)
- GI50 (NCI-H23): > 70 µM (inactive)
- GI50 (HT-29): > 39.6 µM (inactive)
- GI50 (BT-549): > 48.4 µM (inactive)
- GI50 (UACC-62): 5.57 µM (inactive)
- GI50 (MDA-MB-231): > 100 µM (inactive)
- GI50 (HL-60): 0.619 µM (active)
- GI50 (TK-10): > 100 µM (inactive)
- GI50 (786-0): > 100 µM (inactive)
- GI50 (Hs-578T): > 100 µM (inactive)
- GI50 (SK-OV-3): > 100 µM (inactive)
- GI50 (SK-MEL-28): > 22 µM (inactive)
- GI50 (SN12C): > 100 µM (inactive)
- GI50 (KM12): 0.556 µM (active)
- GI50 (ACHN): > 43.6 µM (inactive)

SMILES: NC(Cc1c2ccccc2cc2ccccc12)C(=O)O (stereo not given)
- GI50 (SF-539): > 100 µM (inactive)
- GI50 (UACC-257): > 100 µM (inactive)
- GI50 (SNB-75): 14 µM (inactive)
- GI50 (SW-620): 70.5 µM (inactive)
- GI50 (NCI-H23): > 100 µM (inactive)
- GI50 (HT-29): > 100 µM (inactive)
- GI50 (UACC-62): 76.9 µM (inactive)
- GI50 (MDA-MB-231): > 100 µM (inactive)
- GI50 (HL-60): > 100 µM (inactive)
- GI50 (TK-10): > 100 µM (inactive)
- GI50 (DU-145): 85.1 µM (inactive)
- GI50 (786-0): > 100 µM (inactive)
- GI50 (SK-OV-3): > 100 µM (inactive)
- GI50 (SK-MEL-28): > 100 µM (inactive)
- GI50 (SN12C): 54.3 µM (inactive)
- GI50 (KM12): > 100 µM (inactive)
- GI50 (ACHN): 83 µM (inactive)

Reference: ChEMBL document CHEMBL1201862, “PubChem BioAssay data set” (2004)
